# Reference: patent US8367695B2, “Condensed tetrahydroquinoline derivative and use thereof for medical purposes” (Mitsubishi Tanabe Pharma Corporation, priority 2007, dated 2013)
# Biological target: T1, human recombinant progesterone receptor-B (PRB) (Homo sapiens, UniProt P06401)
# T1 construct: purchased Invitrogen (Carlsbad, Calif.)
# T1 sequence (P06401 1-933): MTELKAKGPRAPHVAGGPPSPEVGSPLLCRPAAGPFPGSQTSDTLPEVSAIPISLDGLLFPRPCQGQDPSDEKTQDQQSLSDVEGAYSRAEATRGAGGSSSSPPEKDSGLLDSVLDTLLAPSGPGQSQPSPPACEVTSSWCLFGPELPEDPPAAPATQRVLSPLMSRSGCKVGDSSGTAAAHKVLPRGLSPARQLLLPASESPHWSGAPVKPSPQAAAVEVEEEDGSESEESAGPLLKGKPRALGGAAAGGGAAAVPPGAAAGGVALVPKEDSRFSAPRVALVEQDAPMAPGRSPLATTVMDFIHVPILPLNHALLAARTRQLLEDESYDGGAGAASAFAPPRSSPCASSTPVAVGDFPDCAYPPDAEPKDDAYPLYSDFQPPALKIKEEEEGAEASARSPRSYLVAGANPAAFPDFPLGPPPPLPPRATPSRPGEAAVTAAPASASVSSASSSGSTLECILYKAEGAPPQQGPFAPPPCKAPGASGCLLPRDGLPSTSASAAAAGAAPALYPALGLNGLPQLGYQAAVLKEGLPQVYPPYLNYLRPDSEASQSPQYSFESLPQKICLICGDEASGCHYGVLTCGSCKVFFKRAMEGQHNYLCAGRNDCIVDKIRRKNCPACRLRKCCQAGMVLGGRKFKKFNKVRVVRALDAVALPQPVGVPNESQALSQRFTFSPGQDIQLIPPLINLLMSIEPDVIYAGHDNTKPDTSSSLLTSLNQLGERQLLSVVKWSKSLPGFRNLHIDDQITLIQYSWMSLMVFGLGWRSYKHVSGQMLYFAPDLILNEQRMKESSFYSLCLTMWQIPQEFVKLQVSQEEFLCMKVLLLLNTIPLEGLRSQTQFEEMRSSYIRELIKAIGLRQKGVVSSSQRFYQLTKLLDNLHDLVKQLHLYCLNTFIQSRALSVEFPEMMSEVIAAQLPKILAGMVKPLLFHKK
# Experiment: Radioactive ligand binding test, PRB cytosol, [3H]-Prog
# Details: not given
# Excerpt: Radioactive Ligand Binding Test Using Cytosols of Human Glucocorticoids Receptor, Progesterone Receptor and Mineralocorticoid Receptor
# The procedures described in Neuroimmunomodulation (1994, 1, p. 66-73) and Invest. Opthalmol. Vis. Sci. (1996, 37, p. 805-813) were modified and used. In brief, cytosol preparations of human recombinant glucocorticoids receptor (GR) and human recombinant progesterone receptor-B (PRB) were purchased from Invitrogen (Carlsbad, Calif.), and a cytosol preparation of human recombinant mineralocorticoid receptor (MR) was prepared by our company (Yokohama, JP). MR cDNA was cloned into a baculovirus expression vector and expressed in insect cell Sf9. The procedures described in J. Biol. Chem. (1991, 266, p. 18072-18081), Proc. Natl. Acad. Sci. USA (1991, 88, p. 10681-10685) and Bac-to-Bac (registered trade mark) Baculovirus Expression Systems technical manual (Invitrogen) were partly modified and used as the procedures for MR gene cloning up to preparation of recombinant receptor cytosol. [^3H]-Dexamethasone (Dex, specific activity 91.0 Ci/mmol) was purchased from GE Healthcare (Buckinghamshire, UK), and [^3H]-progesterone (Prog, specific activity 103 Ci/mmol) and [3H]-aldosterone (Ald, specific activity 87.9 Ci/mmol) were each purchased from PerkinElmer (Boston, Mass.). Polypropylene round-bottomed 96 well plate was obtained from ABgene (Epsom, UK). Dimethyl Sulfoxide (DMSO) and hydrochloric acid were obtained from Kanto Chemical (TOKYO, JP). Trizma Base (Tris), Bovine Serum Albumin (BSA) and Sodium tungstate dihydrate were obtained from Sigma Chemicals (St. Louis, Mo.). Dithiothreitol (DTT) and Dextran 70 were obtained from GE Healthcare (Buckinghamshire, UK). Glycerol was obtained from Junsei Chemical (TOKYO, JP). Norit® “SX-II” was obtained from Wako Pure Chemical Industries, Ltd. (Osaka, JP). MeltiLex™, A, Printed Filtermat A and Sample Bag were obtained from PerkinElmer (Boston, Mass.).
# As a buffer for GR binding assay, 25 mM Tris-HCl (4° C., pH 7.4)/1 mM EDTA·2Na/1 mM DTT/0.1% BSA was prepared and used. As buffers for PRB and MR binding assay, 10 mM Tris-HCl (4° C., pH 7.4)/1 mM DTT/0.1% BSA/10% glycerol and 20 mM Tris-HCl (4° C., pH 7.4)/1 mM EDTA·2Na/10% glycerol/20 mM sodium tungstate were respectively prepared and used. As dextran-coated charcoal (DCC) for B/F separation, 0.75% Dextran 70/0.75% Norit® SX-II/10 mM Tris-HCl (4° C., pH 7.4) was prepared and used.
# Compound storage solutions (5-20 mM) were prepared using DMSO. The storage solutions were diluted with DMSO to 0.1 mM (for GR) and 0.3 mM (for PRB and MR), and further diluted 20-fold with distilled water to give solutions. Then, the preparations were diluted to each concentration with 5% DMSO solution. 1% DMSO was present at the time of the binding assay.
# In the case of PRB binding assay, [^3H]-Prog (about 5 nM), PRB cytosol (concentration of function receptor: about 4 pmol/mL), a test compound and a binding buffer were mixed in a total volume of 50 μL, and the mixture was stood at 4° C. for 30 min or longer. A specific binding was defined to be the difference in the [^3H]-Prog binding between the presence and the absence of 1 μM unlabeled Prog.
# After the reaction, 50 μL of DCC was added to each well and blended. Thereafter, the mixture was stood at 4° C. for 10 min. The plate was applied to high-speed cooling centrifuge under the conditions of 4° C., 2000 rpm, 5 min to perform B/F separation. A given amount of the supernatant was recovered, which was spotted on Filtermat A of 96 well format (PerkinElmer) and rapidly dried at a high temperature. Then, solid scintillator MeltiLex A (PerkinElmer) was melted on Filtermat A. The mixture was placed in a Sample Bag (PerkinElmer), and the level of radioactivity was measured by plate reader 1450 Micro Beta TRILUX (PerkinElmer).
# Measurement of Inhibition Constant (Ki)
row,Structure (SMILES),Ki [nM]
1,"C=CCC1(C)C(=O)C(C)(C)Nc2c1cc(-c1cccc3cc[nH]c13)c1c2OCO1 (stereo not shown) [Example 78, 6-allyl-4-(1H-indol-7-yl)-6,8,8-trimethyl-6,7,8,9-tetrahydro-[1,3]dioxolo[4,5-h]quinolin-7-one]",> 1250
2,"CC1(C)Nc2c(cc(-c3cccc4nncn34)c3c2CCC3)C(C)(C)C1=O [Example 17, 2,2,4,4-tetramethyl-6-([1,2,4]triazolo[4,3-a]pyridin-5-yl)-2,3,4,7,8,9-hexahydro-1H-cyclopenta[h]quinolin-3-one]",> 1250

# Same assay, conditions: [3H]-Prog about 5 nM, PRB cytosol, 4° C.; Cheng-Prusoff, Kd about 3.5 nM; read-out: PR (Ki: nM)
row,Structure (SMILES),Ki [nM]
1,"CC1(C)Nc2c(cc(-c3ccnc4ncccc34)c3occc23)C(C)(C)C1=O [Example 102, 2,2,4,4-tetramethyl-6-([1,8]naphthyridin-4-yl)-1,2,3,4-tetrahydro-furo[2,3-h]quinolin-3-one]",> 1250
2,"CCC1(C)C(=O)C(C)(C)Nc2c1cc(-c1cccc3nccn13)c1c2CCC1 (stereo not shown) [Example 58, 4-ethyl-6-(imidazo[1,2-s]pyridin-5-yl)-2,2,4-trimethyl-2,3,4,7,8,9-hexahydro-1H-cyclopenta[h]quinolin-3-one]",1010
3,"CC1(C)Nc2c(cc(-c3ccnc4ncccc34)c3c2CCO3)C(C)(C)C1=O [Example 92, 2,2,4,4-tetramethyl-6-([1,8]naphthyridin-4-yl)-1,2,3,4,8,9-hexahydro-furo[2,3-h]quinolin-3-one]",> 1250
4,"C=CCC1(C)C(=O)C(C)(C)Nc2c1cc(-c1cccc3nccn13)c1c2CCC1 (stereo not shown) [Example 57, 4-allyl-6-(imidazo[1,2-a]pyridin-5-yl)-2,2,4-trimethyl-2,3,4,7,8,9-hexahydro-1H-cyclopenta[h]quinolin-3-one]",> 1250
5,"CC1(C)Nc2c(cc(-c3ccnc4ncccc34)c3c2CCC3)C(C)(C)C1=O [Example 21, 2,2,4,4-tetramethyl-6-([1,8]naphthyridin-4-yl)-2,3,4,7,8,9-hexahydro-1H-cyclopenta[h]quinolin-3-one]",> 1250
6,"CC#CCC1(C)C(=O)C(C)(C)Nc2c1cc(-c1cccc3nccn13)c1c2CCC1 (stereo not shown) [Example 63, 4-(2-butynyl)-6-(imidazo[1,2-a]pyridin-5-yl)-2,2,4-trimethyl-2,3,4,7,8,9-hexahydro-1H-cyclopenta[h]quinolin-3-one]",> 1250
7,"CC1(C)Nc2c(cc(-c3cccc4ncccc34)c3occc23)C(C)(C)C1=O [Example 101, 2,2,4,4-tetramethyl-6-(quinolin-5-yl)-1,2,3,4-tetrahydro-furo [2,3-h]quinolin-3-one]",1220
8,"CC1(C)Nc2c(cc(-c3cncc4nccn34)c3occc23)C(C)(C)C1=O [Example 100, 6-(imidazo[1,2-a]pyrazin-5-yl)-2,2,4,4-tetramethyl-1,2,3,4-tetrahydro-furo[2,3-h]quinolin-3-one]",> 1250
9,"Cc1onc(CO)c1-c1cc2c(c3ccoc13)NC(C)(C)C(=O)C2(C)C [Example 94, 6-(3-hydroxymethyl-5-methylisoxazol-4-yl)-2,2,4,4-tetramethyl-1,2,3,4-tetrahydro-furo[2,3-h]quinolin-3-one]",> 1250
10,"Cc1noc(C)c1-c1cc2c(c3c1OCC3)NC(C)(C)C(=O)C2(C)C [Example 84, 6-(3,5-dimethylisoxazol-4-yl)-2,2,4,4-tetramethyl-1,2,3,4,8,9-hexahydro-furo[2,3-h]quinolin-3-one]",> 1250
11,"Cc1noc(C)c1-c1cc2c(c3c1OCO3)NC(C)(C)C(=O)C2(C)C [Example 69, 4-(3,5-dimethylisoxazol-4-yl)-6,6,8,8-tetramethyl-6,7,8,9-tetrahydro-[1,3]dioxolo[4,5-h]quinolin-7-one]",> 1250
12,"CC1(C)Nc2c(cc(-c3cccc4nccn34)c3c2CCO3)C(C)(C)C1=O [Example 88, 6-(imidazo[1,2-a]pyridin-5-yl)-2,2,4,4-tetramethyl-1,2,3,4,8,9-hexahydro-furo[2,3-h]quinolin-3-one]",> 1250
13,"Cc1nnn(C)c1-c1cc2c(c3c1CCC3)NC(C)(C)C(=O)C2(C)C [Example 4, 6-(3,5-dimethyl-3H-[1,2,3]triazol-4-yl)-2,2,4,4-tetramethyl-2,3,4,7,8,9-hexahydro-1H-cyclopenta[h]quinolin-3-one]",> 1250
14,"CC1(C)Nc2c(cc(-c3cccc4ncccc34)c3c2OCO3)C(C)(C)C1=O [Example 72, 6,6,8,8-tetramethyl-4-(quinolin-5-yl)-6,7,8,9-tetrahydro-[1,3]dioxolo[4,5-h]quinolin-7-one]",> 1250
15,"CC1(C)Nc2c(cc(-c3cccc4nccn34)c3c2OCO3)C(C)(C)C1=O [Example 71, 4-(imidazo[1,2-a]pyridin-5-yl)-6,6,8,8-tetramethyl-6,7,8,9-tetrahydro-[1,3]dioxolo[4,5-h]quinolin-7-one]",> 1250
16,"CC1(C)Nc2c(cc(-c3ccnc4cc[nH]c34)c3c2CCC3)C(C)(C)C1=O [Example 13, 2,2,4,4-tetramethyl-6-(1H-pyrrolo[3,2-b]pyridin-7-yl)-2,3,4,7,8,9-hexahydro-1H-cyclopenta[h]quinolin-3-one]",> 1250
17,"CC1(C)Nc2c(cc(-c3cccc4nccn34)c3occc23)C(C)(C)C1=O [Example 98, 6-(imidazo[1,2-a]pyridin-5-yl)-2,2,4,4-tetramethyl-1,2,3,4-tetrahydro-furo[2,3-h]quinolin-3-one]",1050
18,"C=CCC1(C)C(=O)C(C)(C)Nc2c1cc(-c1ccc(O)cc1C)c1c2CCC1 (stereo not shown) [Example 50, 4-allyl-6-(4-hydroxy-2-methylphenyl)-2,2,4-trimethyl-2,3,4,7,8,9-hexahydro-1H-cyclopenta[h]quinolin-3-one]",> 1250
19,"Cc1noc(C)c1-c1cc2c(c3c1CCC3)NC(C)(C)C(=O)C2(C)C [Example 2, 6-(3,5-dimethylisoxazol-4-yl)-2,2,4,4-tetramethyl-2,3,4,7,8,9-hexahydro-1H-cyclopenta[h]quinolin-3-one]",> 1250
20,"CC1(C)Nc2c(cc(-c3cccc4ncccc34)c3c2CCC3)C(C)(C)C1=O [Example 20, 2,2,4,4-tetramethyl-6-(quinolin-5-yl)-2,3,4,7,8,9-hexahydro-1H-cyclopenta[h]quinolin-3-one]",> 1250
